Laboratory results from patent publication US10377784B2, “Design, synthesis, and biological activity of platinum-benz[c]acridine hybrid agents and methods associated therewith” (Wake Forest University, priority 2014, dated 2019).

Tests used:
[1] = system: NCI-H460; test: Cytotoxicity assay (MTS, Celltiter 96) in NCI-H460; type: cell-based, human; settings: for IC50: 72 h drug incubation, MTS assay, mean of duplicate experiments ± SD
Procedure: (§1) After successful synthesis and purification of P1-A1, P1-B1, and P1-B2 was completed, each drug was tested for its cell-kill ability in five non-small-cell lung cancer cell lines (Table 2).
(§2) ^aConcentration of compound that reduces cell viability by 50%, determined at 72 h of drug incubation using the MTS (3-(4,5-dimethylthiazol-2-yl)-5-(3-carboxymethoxyphenyl)-2-(4-sulfophenyl)-2H-tetrazolium) assay. Values are means of duplicate experiments±the standard deviation. ^bCompound not tested in this cell line.
(§3) The human non-small cell lung cancer cell lines, NCI-H460 (large cell), NCI-H520 (squamous cell), NCI-H522, NCI-H1435 and A549 (adenocarcinomas) were obtained from the American Type Culture Collection (Rockville, Md., USA). NCI-H460, NCI-H520 and NCI-H522 cells were cultured in RPMI-1640 media (HyClone) supplemented with 10% fetal bovine serum (FBS), […] (P&S), […], and 1.5 g/L NaHCO3. A549 cells were cultured in HAM's F12K media (Gibco) with the same additives as above. NCI-H1435 cells were cultured in serum-free 1:1 DMEM/F12 media (Gibco) containing 2.436 g/L NaHCO3, 0.02 mg/mL insulin, 0.01 mg/mL transferrin, 25 nM sodium selenite, 50 nM hydrocortisone, 1 ng/mL epidermal growth factor, 0.01 mM ethanolamine, 0.01 mM phosphorylethanolamine, 100 pM triiodothyronine, 0.5% (w/v) bovine serum albumin (BSA), 10 mM HEPES, 0.5 mM sodium pyruvate, and an extra 2 mM L-glutamine (final concentration 4.5 mM). Cells were incubated at a constant temperature at 37° C. in a humidified atmosphere containing 5% CO2 and were subcultured every 2 to 3 days in order to maintain cells in logarithmic growth, except for NCI-H1435 which was subcultured every 7 days.
(§4) The cytotoxicity studies were carried out according to a standard protocol using the Celltiter 96 aqueous nonradioactive cell proliferation assay kit (Promega, Madison, Wis.). Stock solutions (10 mM) of all drugs were made in DMF, except for P1-B2 which was made in DMSO, and serially diluted with media prior to incubation with cancer cells. IC50 values were calculated from nonlinear curve fits using a sigmoidal dose-response equation in GraphPad Prism (GraphPad Software, La Jolla, Calif.).

[2] = system: NCI-H520; test: Cytotoxicity assay (MTS, Celltiter 96) in NCI-H520; type: cell-based, human; settings: mean of duplicate experiments ± SD
Procedure: as §1, §2, §3, §4

[3] = Spectrophotometric determination of pKa values for platinum complexes; type: physicochemical; settings: spectrophotometric titration at 25° C.; numeric values only in Chart 3 drawing
Procedure: The pKa values of P1-A1, P1-B1 and P1-B2 were determined spectrophotometrically using a Hewlett Packard 8354 spectrophotometer equipped with a Peltier temperature control and a cell stirring module. Titrations were carried out at 25° C. in the pH range 2-11 with a micro combination electrode placed inside the cuvette. Solutions of P1-A1 (˜100 μM), P1-B1 (˜100 μM), and P1-B2 (˜50 μM) in 0.1 M HCl/100 mM NaCl were titrated with aliquots of 0.4 M, 0.04M, and 0.004M KOH, and UV-Vis spectra were recorded after a 2 min equilibration time. The protonation state of the chromophores was deduced from spectral changes around isosbestic points. The pKa values were determined graphically from plots of pH vs. log[k(Aacr/AacrH+)], where k=εacrH+/εacr using suitable absorbance maxima. The pKa values of P1-A1 and P1-B1 were determined at the y-intercept of the plot. […] Reported pKa values are means of three measurements+/−the standard deviation.

[4] = system: NCI-H522; test: Cytotoxicity assay (MTS, Celltiter 96) in NCI-H522; type: cell-based, human; settings: 72 h drug incubation, mean of duplicate experiments ± SD
Procedure: as §1, §2, §3
as §4, with “Stock solutions (10 mM) of all drugs were made in DMF, except for P1-B2 which was made in DMSO, and serially diluted with media prior to incubation with cancer cells.” left out

[5] = system: G-quadruplex DNA; test: G-quadruplex DNA recognition and platination; type: binding; settings: for Selective recognition of G-quadruplex DNA: displayed by induced circular dichroism (ICD)
[6] = system: NCI-H1435; test: Cytotoxicity assay (MTS, Celltiter 96) in NCI-H1435; type: cell-based, human; settings: 72 h drug incubation, mean of duplicate experiments ± SD
Procedure: as §1, §2, §3
as §4, with “Stock solutions (10 mM) of all drugs were made in DMF, except for P1-B2 which was made in DMSO, and serially diluted with media prior to incubation with cancer cells.” left out

[7] = system: A549; test: Cytotoxicity assay (MTS, Celltiter 96) in A549; type: cell-based, human; settings: 72 h drug incubation, mean of duplicate experiments ± SD
Procedure: as §1, §2, §3
as §4, with “Stock solutions (10 mM) of all drugs were made in DMF, except for P1-B2 which was made in DMSO, and serially diluted with media prior to incubation with cancer cells.” left out

[8] = system: DNA from NCI-H460 cells; test: Platinum content associated with DNA in NCI-H460 cells (ICP-MS); type: cell-based, human; settings: 1 μM drug, both time points, p>0.05
Procedure: (§5) To determine the platinum content of nucleic acid material, DNA and RNA was extracted and purified from cells using the Qiagen AllPrep DNA/RNA Mini Kit (Qiagen, Alameda, Calif., USA). 1.5×10^6 exponentially-growing NCI-H460 cells were seeded into 60-mm cell culture dishes with 2 mL of media and were allowed to attach for 24 hours. Cells were incubated in the presence of 1 μM P1-A1 or P1-B1 at 37° C. for various time intervals. Incubations were performed in triplicate for each incubation condition/time point. To quench the incubations, cells were washed three times in cold PBS. The cells were harvested via trypsinization and removed from the dishes with successive washes of cold PBS. Cell suspensions were centrifuged at 1500 rpm for 5min at 4° C. The cell pellet was re-suspended in 5 mL of cold PBS and centrifuged at 1500 rpm for 5 min at 4° C. The supernatant was removed and the DNA/RNA was extracted from the pellet according to the protocol provided by the manufacturer. The concentration and purity of each sample was determined spectrophotometrically (triplicate readings at 260 and 280 nm).
(§6) Platinum content was determined by ICP-MS.

[9] = system: non-small-cell lung cancer cell lines; test: Cytotoxicity across NSCLC lines (summary statements); type: cell-based, human
Procedure: as §1
When observing the structure-activity relationship of the platinum hybrid agents, it is important to note the increased cytotoxicity upon addition of the platinum module.
The human non-small cell lung cancer cell lines, NCI-H460 (large cell), NCI-H520 (squamous cell), NCI-H522, NCI-H1435 and A549 (adenocarcinomas) were obtained from the American Type Culture Collection (Rockville, Md., USA). NCI-H460, NCI-H520 and NCI-H522 cells were cultured in RPMI-1640 media (HyClone) supplemented with 10% fetal bovine serum (FBS), […] (P&S), […], and 1.5 g/L NaHCO3. A549 cells were cultured in HAM's F12K media (Gibco) with the same additives as above. […]
as §4, with “Stock solutions (10 mM) of all drugs were made in DMF, except for P1-B2 which was made in DMSO, and serially diluted with media prior to incubation with cancer cells.” left out

[10] = system: RNA from NCI-H460 cells; test: Platinum content associated with RNA in NCI-H460 cells (ICP-MS); type: cell-based, human; settings: 1 μM drug, 3 h, p<0.05
Procedure: as §5, §6

[11] = Homo sapiens, NCI-H520, 72 h drug incubation

With `CNCCNc1c2ccccc2nc2c1ccc1ccccc12` [Compound B1, N1-(benzo[c]acridin-7-yl)-N2-methylethane-1,2-diamine] the IC50 ([1]; Homo sapiens, NCI-H460) was 0.9 ± 0.1 µM, the “IC50 value (in words)” value ([1]; NCI-H460 cells, 72 h incubation, chromophore module alone) was “sub-micromolar range” and the IC50 [2, 11] was 1.8 ± 0.1 µM.

For “[Pt(Cl)(NH3)2(N-(2-(acridin-9-ylamino)ethyl)-N-methylpropionimidamide)] Cl [Compound P1-A1, reference compound]”, the “pKa (rank among the three Pt-chromophore hybrid agents)” value [3] was “highest”, the IC50 [1] was 0.0052 ± 6e-05 µM and the IC50 ([2]; 72 h drug incubation) was 0.043 ± 0.004 µM. For the same compound, the IC50 [4] was 0.01 ± 0.0007 µM, the “Selective recognition of G-quadruplex DNA” value (from here on “Selective recognition”) [5] was “not previously displayed” and the IC50 [6] was 0.84 ± 0.07 µM. For the same compound, the IC50 [7] was 0.0065 ± 0.0002 µM.

With “[Pt(Cl)(NH3)2(N-methyl-N-(2-((9-nitrobenzo[c]acridin-7-yl)amino)ethyl)propionimidamide)] Cl •1/3 DMF [Compound P1-B2]” the “pKa (rank among the three Pt-chromophore hybrid agents)” value [3] was “lowest”, the IC50 [1] was 2.4 ± 0.5 µM and the IC50 ([2]; 72 h drug incubation) was 2.2 ± 0.1 µM. The IC50 [4] was 3.62 ± 0.08 µM, the “folding and irreversible platination of G-quadruplex DNA” value [5] was “ability to fold and irreversibly platinate G-quadruplex DNA” and the “Selective recognition” value [5] was “Selective recognition of G-quadruplex DNA”. It also gave an IC50 [6] of 11 ± 0.2 µM and an IC50 [7] of 12.4 ± 0.9 µM.

Work on `CNCCNc1c2cc([N+](=O)[O-])ccc2nc2c1ccc1ccccc12` [Compound B2, N1-methyl-N2-(9-nitrobenzo[c]acridin-7-yl)ethane-1,2-diamine] yielded an IC50 ([1]; Homo sapiens, NCI-H460) of 2.08 ± 0.04 µM and an IC50 [2, 11] of 3.35 ± 0.08 µM.

For “[Pt(Cl)(NH3)2(N-(2-(benzo[c]acridin-7-ylamino)ethyl)-N-methylpropionimidamide)] Cl [Compound P1-B1]”, the “platinum level observed in the DNA of treated cells vs control cells” value [8] was “not statistically significant”, the “cytotoxicity (in words)” value ([9]; 72 hour incubations, extremely aggressive NSCLC models) was “nanomolar cytotoxicity” and the IC50 ([9]; NSCLC lines tested except NCI-H1435) was 100 to 500 nM. For the same compound, the “platinum level observed in the RNA of treated cells” value [10] was “statistically significant”, the IC50 [1] was 0.24 ± 0.01 µM and the IC50 ([2]; 72 h drug incubation) was 0.516 ± 0.009 µM. For the same compound, the IC50 [4] was 0.12 ± 0.02 µM, the “folding and irreversible platination of G-quadruplex DNA” value [5] was “ability to fold and irreversibly platinate G-quadruplex DNA” and the “Selective recognition” value [5] was “Selective recognition of G-quadruplex DNA”. For the same compound, the IC50 [6] was 1.479 ± 0.009 µM and the IC50 [7] was 0.32 ± 0.06 µM.
